The text below walks through data of US9643916B2, “Low molecular weight cationic lipids for oligonucleotide delivery” (SIRNA THERAPEUTICS, INC., priority 2010, dated 2017).

In data set [1] the test system is mRNA transcript for the firefly (Photinus pyralis) luciferase gene. Kind of data set: Mouse in vivo evaluation of efficacy (luciferase mouse model, liver luminescence by IVIS imaging). To be noted: LSL-Luc transgenic mice, Luc siRNA RDVs tail vein injected, 0.3 to 3 mg/kg siRNA, imaged 48 hours post dose; compared with RDV containing octyl-CLinDMA (OCD); FIG. 1. The procedure: LNPs utilizing Compounds 1-2, in the nominal compositions described immediately above, were evaluated for in vivo efficacy and induction of inflammatory cytokines in a luciferase mouse model. The siRNA targets the mRNA transcript for the firefly (Photinus pyralis) luciferase gene (Accession #M15077). […] The in vivo luciferase model employs a transgenic mouse in which the firefly luciferase coding sequence is present in all cells. ROSA26-LoxP-Stop-LoxP-Luc (LSL-Luc) transgenic mice licensed from the Dana Farber Cancer Institute are induced to express the Luciferase gene by first removing the LSL sequence with a recombinant Ad-Cre virus (Vector Biolabs). Due to the organo-tropic nature of the virus, expression is limited to the liver when delivered via tail vein injection. Luciferase expression levels in liver are quantitated by measuring light output, using an IVIS imager (Xenogen) following administration of the luciferin substrate (Caliper Life Sciences). Pre-dose luminescence levels are measured prior to administration of the RDVs. Luciferin in PBS (15 mg/mL) is intraperitoneally (IP) injected in a volume of 150 μL. […] In vivo efficacy results are expressed as % inhibition of luminescence relative to pre-dose luminescence levels. Plasma cytokine levels were determined using the SearchLight multiplexed cytokine chemiluminescent array (Pierce/Thermo). […]

Data set [2] concerns mRNA transcript for the ApoB gene. As to the kind of experiment: Rat in vivo evaluation of efficacy (liver ApoB mRNA by quantitative RT-PCR). To be noted: Sprague-Dawley female rats, ApoB siRNA RDV tail vein injected, necropsy 24 hours after dosing; compared with RDV containing octyl-CLinDMA; FIG. 2. The procedure:
(§1) Six hours post dose, food is removed from the cages. Animal necropsy is performed 24 hours after LNP dosing. Rats are anesthetized under isoflurane for 5 minutes, then maintained under anesthesia by placing them in nose cones continuing the delivery of isoflurane until ex-sanguination is completed. Blood is collected from the vena cava using a 23 gauge butterfly venipuncture set and aliquoted to serum separator vacutainers for serum chemistry analysis. Punches of the excised caudate liver lobe are taken and placed in RNALater (Ambion) for mRNA analysis. Preserved liver tissue was homogenized and total RNA isolated using a Qiagen bead mill and the Qiagen miRNA-Easy RNA isolation kit following the manufacturer's instructions. Liver ApoB mRNA levels were determined by quantitative RT-PCR. Message was amplified from purified RNA utilizing a rat ApoB commercial probe set (Applied Biosystems Cat # RN01499054_m1). The PCR reaction was performed on an ABI 7500 instrument with a 96-well Fast Block. The ApoB mRNA level is normalized to the housekeeping PPIB (NM 011149) mRNA. PPIB mRNA levels were determined by RT-PCR using a commercial probe set (Applied Biosystems Cat. No. Mm00478295_m1). Results are expressed as a ratio of ApoB mRNA/PPIB mRNA. All mRNA data is expressed relative to the PBS control dose. […]

Data set [3] can be described thus: Rat in vivo toxicity (serum ALT and AST). To be noted: Sprague-Dawley female rats, serum 24 hours after LNP dosing; compared with RDV containing octyl-CLinDMA; FIG. 3. As to the method: as §1

With `CCCCC/C=C\C/C=C\CCCCCCCCOC[C@H](COCCCCCCCC)N(C)C` [Compound 1, S-N,N-dimethyl-1-[(9Z,12Z)-octadeca-9,12-dien-1-yloxy]-3-(octyloxy)propan-2-amine], in data set [1], the “In vivo efficacy, % inhibition of luminescence relative to pre-dose luminescence levels” value is recorded as “Greater efficacy”. Besides, the “In vivo efficacy, liver ApoB mRNA/PPIB mRNA relative to the PBS control dose” value in data set [2] is on record as “Greater efficacy”. Moreover, the “Elevations in LFTs (ALT/AST)” value in data set [3] is “lower elevations in LFTs (ALT/AST)”.
